Structures can show the parent of a compound that is named as a salt.

Here are results for 4 molecules from patent publication US6774263B1, “Pharmaceutically active compound and methods of use” (Cambridge Neuroscience, Inc., priority 1997, dated 2004).

For series [1], the system named is rats. Kind of series: Rat rotarod motor coordination test. The class given is in vivo. As for the experimental part:
The effects of the hydrochloride salt of (t)-N-(2-chloro-5-methylthiophenyl)-N′-(3-methylsulfinylphenyl)-N′-methylguanidine (compound (I)) on motor coordination were assessed using the rotarod test. Drug solutions were administered i.v. through the tail vein of test rats in a volume of 5.0 ml/kg at a rate of 1 ml/min. The percentage of animals in each treatment group that fell from the rotarod at each of the four time points tested is summarized in the following Table I. Control was 20% C.D. N in each of the Tables below specifies the number of animals in each test group.
The latency for falling from the rotarod was statistically analyzed using analysis of variance (ANOVA), and a Neumann Keuls post-hoc was applied when appropriate. […] In FIG. 1, “**” designates P<0.01 and “***” designates P<0.001.
The acetate salt of (−)-N-(2-chloro-5-methylthiophenyl)-N′-(3-methylsulfinylphenyl)-N′-methylguanidine was also tested in the same rotarod assay protocol as described in Part A above. Drug solutions were administered i.v. through the tail vein in a volume of 5 ml/kg at a rate of 1 ml/min. In Table II, Control (1) is 60 mM Acetate Buffer in 0.3M mannitol at 0.06 and 0.125 mg/kg doses and Control (2) is 60 mM Acetate Buffer in 0.3M mannitol at 0.25 and 0.5 mg/kg doses.
The acetate salt of (+)-N-(2-chloro-5-methylthiophenyl)-N′-(3-methylsulfinylphenyl)-N′-methylguanidine was also tested in the same rotarod assay protocol as described in Part A above. Drug solutions were administered i.v. through the tail vein in a volume of 5 ml/kg at a rate of 1 ml/min. In Table III, Control (1) is 60 mM Acetate Buffer in 0.3M mannitol at 0.06 and 0.125 mg/kg doses and Control (2) is 60 mM Acetate Buffer in 0.3M mannitol at 0.25 and 0.5 mg/kg doses.
The results for compounds of the invention can be compared to those obtained for MK-801, i.e. (+)-5-methyl-10,11-dihydro-5H-dibenzo[a,d]cyclohepten-5,10-imine maleate. In the rotarod test for MK-801, drug solutions were administered i.v. through the tail vein of each test rat in a volume of 5 ml/kg at a rate of 1 ml/min. The control was 0.9% saline solution.
In general terms: In the rotarod test animals must keep their balance on a rotating rod.

The test system of series [2] is rats. The series can be described thus: Rat MCAO ischemia model. The class given is in vivo. The note with it: in thirds at 10 min, 1 h and 2 h. As for the experimental part: A. The hydrochloride salt of (±)-N-(2-chloro-5-methylthiophenyl)-N′-(3-methylsulfinylphenyl)-N′-methylguanidine (compound (I)) was tested in the rat MCAO ischemia model with % reduction in total lesion volume (mm^3) determined by the following protocol.
Rats were anaesthetized with isoflurane and focal ischemia was induced by directly ligating the main trunk of MCA using a bipolar electrocoagulor. Coronal sections (seven sections, 2.0 mm intervals) were collected and incubated in 2,3,5-triphenyltetrazolium chloride (TTC) solution for 15 minutes at 37° C., then fixed in 4% paraformaldehyde solution in the dark at 4° C. for at least 48 hours. Seven sections of each brain were photographed and analyzed. The areas that were not stained red with TTC were measured as infarction.
The test animals were treated with the test compound and control (mannitol) as follows. Ten minutes after the MCAO incident the test animals were administered (i.v. infusion/10 minutes) with one third of the total dose of the test compound (total doses specified below); 1 hour after that first dosing the test animals were given another one third of the total dose of the test compound; and then 2 hours after that first dosing the test animals were given another one third of the total dose of the test compound. Mannitol was administered to the control group at the first dosing only.
Sprague-Dawley rats with body weights of 270-320 grams were used in the study.

The conditions of series [3]: cited from earlier work.
The test system of series [4] is mouse. To be noted: in vivo; cited from earlier work.
In series [5] the test system is rat pups. Kind of series: Rat pup hypoxia-ischemia model. The class given is in vivo. As for the experimental part: A. The hydrochloride salt of (±)-N-(2-chloro-5-methylthiophenyl)-N′-(3-methylsulfinylphenyl)-N′-methylguanidine was tested in the rat pup hypoxia-ischemia model with % reduction in total lesion volume determined at the specified test dose. A rat pup hypoxia-ischemia assay protocol of the following protocol was employed.
8 day-old rat pups weighing 17-23 grams were anaesthetized with isoflurane and the left common carotid artery ligated. Immediately prior to the hypoxia-ischemia (H-I) insult a test group of animals was injected intraperitoneally with 2 mg/kg, 5 mg/kg or 10 mg/kg of the test compound and a control group was treated with a corresponding dose of mannitol. Then, immediately after the H-I insult, the animals received a second equivalent dose, i.e. the test group of animals was injected intraperitoneally with 2 mg/kg (total 4 mg/kg administered in the two doses), 5 mg/kg (total 10 mg/kg administered in the two doses) or 10 mg/kg (total 20 mg/kg administered in the two doses) of the test compound and a control group was treated with a corresponding dose of mannitol. The animals were then allowed to recover for 1-2 hours and then exposed to 7.8% O2 in nitrogen for 78 minutes in an incubator at 36.5° C. The rat pups were returned to mothers immediately after the H-I insult. The animals were sacrificed two days after H-I insult, their brain was removed and cut into four 2 mm thick slices prior to staining with 2% 2,3,5-triphenyltetrazolium chloride (TTC) solution. The sections were then fixed with 4% paraformaldehyde solution in the dark at 4° C. for at least 48 hours. Four sections from each brain were imaged and analyzed using the IPLab system. The lesion area which was not stained red with TTC was measured as infarction.
B. The acetate salt of (+)-N-(2-chloro-5-methylthiophenyl)-N′-(3-methylsulfinylphenyl)-N′-methylguanidine was also tested in the rat pup hypoxia-ischemia model with % reduction in total lesion volume determined by the same protocol as specified in Part A above, except the rat pups were exposed to 7.8% O2 in nitrogen for 85 minutes.

The test system of series [6] is rats. The series can be described thus: Irwin general behavior screen. The format is in vivo, rat. The note with it: times in minutes. From the text: See S. Irwin, Animal and Clinical Pharmacologic Techniques in Drug Evaluation, pages 36-54 (Year Book Medical Publishers, Chicago), which details the protocol of the Irwin behavior screen.
Setting [7] is: total dose 4.5 mg/kg i.v. infusion, 4.5 mg/kg.
Setting [8] is: total dose 9 mg/kg i.v. infusion, 9 mg/kg.
Setting [9] is: total dose 2.25 mg/kg i.v. infusion.

In the case of `CSc1ccc(Cl)c(NC(=N)N(C)c2cccc([S+](C)[O-])c2)c1` (single isomer, unassigned; (-)) [compound (IA), (−)-N-(2-chloro-5-methylthiophenyl)-N′-(3-methylsulfinylphenyl)-N′-methylguanidine], the “latency for falling from the rotarod (falling times)” value in series [1] (rat, in vivo) is reported as “no statistically significant differences”. Further, the “latency for falling from the rotarod vs control groups” value in series [1] (rat, in vivo) is on record as “significantly shorter latencies”. In addition, the “% reduction in total lesion volume” value came to 1% in series [2] (setting [7]) and 22% in series [2] (setting [8]).

As to `C[C@]12N[C@H](Cc3ccccc31)c1ccccc12` [MK-801, (+)-5-methyl-10,11-dihydro-5H-dibenzo[a,d]cyclohepten-5,10-imine maleate], the “results in in vivo models of stroke” value in series [3] was “good results”. Further, in series [4], the “activity in mouse audiogenic tests” value was “good activity”. Also, the “percentage of animals that fell from the rotarod” value came to 38% in series [1] (0.01 mg/kg i.v., 15 min.); 13% in series [1] (0.01 mg/kg i.v., 60 min.); 25% in series [1] (0.01 mg/kg i.v., 120 min.); 86% in series [1] (0.05 mg/kg i.v., 15 min.); 57% in series [1] (0.05 mg/kg i.v., 60 min.); 29% in series [1] (0.05 mg/kg i.v., 120 min.).

Turning to `CSc1ccc(Cl)c(NC(=N)N(C)c2cccc([S+](C)[O-])c2)c1` (racemic) [compound (I), N-(2-chloro-5-methylthiophenyl)-N′-(3-methylsulfinylphenyl)-N′-methylguanidine], in series [1] (rat, in vivo), the “lethality of pre-testing doses” value is recorded as “lethal”. Further, the “% reduction in total lesion volume” value in series [5] (i.p. total dose of 10 mg/kg, 7.8% O2 for 78 minutes) came out at 60%; in series [5] (i.p. total dose of 20 mg/kg, 7.8% O2 for 78 minutes) it was 100%; in series [2] (setting [9]) it was 24%; in series [2] (total dose 4.5 mg/kg i.v. infusion), 32%; in series [2] (total dose 9 mg/kg i.v. infusion), 46%. Further, the “behavioral effects observed in Irwin screen” value in series [6] (4 mg/kg i.v.) was “excitation (120-180′) sterotypies (sniffing 60-180′) fore-paw treading (120′) loss of traction (2 of 3, 120′)”; in series [6] (16 mg/kg i.v.), “excitation (30-180′) sterotypies (head-weaving to 180′) fore-paw treading (to 180′) loss of traction (to 180′) hypothermia”.

In the case of `CSc1ccc(Cl)c(NC(=N)N(C)c2cccc([S+](C)[O-])c2)c1` (single isomer, unassigned; (+)) [compound (IB), (+)-N-(2-chloro-5-methylthiophenyl)-N′-(3-methylsulfinylphenyl)-N′-methylguanidine], in series [1] (rat, in vivo), the “latency for falling from the rotarod (falling times)” value was “no statistically significant differences”. In addition, the “latency for falling from the rotarod vs control groups” value in series [1] (rat, in vivo) is recorded as “significantly shorter latencies”. The “% reduction in total lesion volume” value is recorded as 78% in series [5] (i.p. total dose of 10 mg/kg, 7.8% O2 for 85 minutes); 93% in series [5] (i.p. total dose of 20 mg/kg, 7.8% O2 for 85 minutes); 23% in series [2] (setting [9]); 32% in series [2] (setting [7]); 34% in series [2] (setting [8]).
